Measured values reported in patent publication US9308215B2, “Avermectins and milbemycins as anti-mycobacterial agents” (priority 2013, dated 2016).
≈ marks a conversion by molar mass, not a printed value. Like-named read-outs stand apart in the source and are kept apart here.

Tests used:
[1] = tested on: R. jostii; experiment: microbe, parasite or virus in culture; assay type: cell-based, Rhodococcus jostii; details: strain RHA1, WT
[2] = tested on: K. rhizophila; experiment: microbe, parasite or virus in culture; assay type: cell-based, Kocuria rhizophila; details: WT
[3] = tested on: S. lividans; experiment: microbe, parasite or virus in culture; assay type: cell-based, Streptomyces lividans; details: strain 1326, WT
[4] = tested on: E. coli; experiment: microbe, parasite or virus in culture; assay type: cell-based, Escherichia coli; details: strain O157:H7, WT
[5] = tested on: representative Gram-positive and Gram-negative bacteria; assay type: cell-based
[6] = tested on: P. aeruginosa; experiment: microbe, parasite or virus in culture; assay type: cell-based, Pseudomonas aeruginosa; details: strain PA01 (H103), WT
[7] = tested on: M. smegmatis; experiment: microbe, parasite or virus in culture; assay type: cell-based, Mycobacterium smegmatis; details: strain mc^2155, WT
[8] = tested on: A. baumannii; experiment: microbe, parasite or virus in culture; assay type: cell-based, Acinetobacter baumannii; details: strain ATCC 1960, WT
[9] = tested on: S. aureus; experiment: microbe, parasite or virus in culture; assay type: cell-based, Staphylococcus aureus; details: strain ATCC 25923, WT
[10] = tested on: M. bovis BCG; experiment: microbe, parasite or virus in culture; assay type: cell-based, Mycobacterium bovis
[11] = tested on: M. tuberculosis; experiment: microbe, parasite or virus in culture; assay type: cell-based, Mycobacterium tuberculosis; details: for MIC90: Mycobacterium tuberculosis
[12] = rats; cited from earlier work
[13] = tested on: M. chelonae; experiment: MIC against mycobacterial species; assay type: cell-based; details: M. chelonae
[14] = tested on: M. avium; experiment: MIC against mycobacterial species; assay type: cell-based, Mycobacterium avium
[15] = Humans, oral, cited from earlier work
[16] = tested on: M. gordonae; experiment: MIC against mycobacterial species; assay type: cell-based; details: M. gordonae 324
[17] = ivermectin: extra-label use; selamectin, moxidectin: therapeutic doses; cited from earlier work
[18] = tested on: M. microti; experiment: microbe, parasite or virus in culture; assay type: cell-based
[19] = single dose, cited from earlier work
[20] = tested on: M. phlei; experiment: MIC against mycobacterial species; assay type: cell-based; details: M. phlei
[21] = tested on: M. intracellulare; experiment: MIC against mycobacterial species; assay type: cell-based
[22] = mice; cited from earlier work
[23] = tested on: M. aurum; experiment: MIC against mycobacterial species; assay type: cell-based; details: M. aurum
[24] = Dogs, 250 μg/kg oral; cited from earlier work

CO[C@H]1C[C@H](O[C@H]2[C@H](C)O[C@@H](O[C@@H]3/C(C)=C/C[C@@H]4C[C@@H](C[C@]5(C=C[C@H](C)[C@@H](C6CCCCC6)O5)O4)OC(=O)[C@@H]4C=C(C)[C@@H](O)[C@H]5OC/C(=C\C=C\[C@@H]3C)[C@]54O)C[C@@H]2OC)O[C@@H](C)[C@@H]1O [Doramectin]
In vitro MIC90 [1]: >256 µg/mL
In vitro MIC90 [2]: >256 µg/mL
In vitro MIC90 [3]: >256 µg/mL
In vitro MIC90 [4]: >256 µg/mL
Inhibitory effects [5]: not observed
In vitro MIC90 [6]: >256 µg/mL
In vitro MIC90 [7]: 128 µg/mL
In vitro MIC90 [8]: >256 µg/mL
In vitro MIC90 [9]: >256 µg/mL
In vitro MIC90 ([10]; strain BCG Pasteur, WT): 8 µg/mL
level of activity ([11]; against all Mycobacterium species, MTT): lower levels of activity
In vitro MIC90 ([11]; strain 1254, WT): 8 to 16 µg/mL
In vitro MIC90 ([11]; strain CDC 1551, WT): 4 to 8 µg/mL
In vitro MIC90 ([11]; strain Erdman, WT): 8 µg/mL
In vitro MIC90 ([11]; strain H37Rv, WT): 8 µg/mL

CO/N=C1\C[C@]2(C[C@@H]3C[C@@H](C/C=C(\C)C[C@@H](C)/C=C/C=C4\CO[C@@H]5[C@H](O)C(C)=C[C@@H](C(=O)O3)[C@]45O)O2)O[C@H](/C(C)=C/C(C)C)[C@H]1C [Moxidectin]
MIC90 ([1]; Rhodococcus jostii, read-out: In vitro MIC90): > 256 µg/mL
LD50 [12]: 106 mg/kg body weight
MIC90 ([2]; Kocuria rhizophila, read-out: In vitro MIC90): > 256 µg/mL
MIC ([13]; Mycobacteroides chelonae, read-out: MIC): 4 µg/mL (≈ 6.25 µM)
MIC ([14]; Mycobacterium avium): > 256 µg/mL
MIC ([14]; Mycobacterium avium, ATCC25291, M. avium ATCC 25291, read-out: MIC): > 128 µg/mL
MIC ([14]; Mycobacterium avium, M. avium 715): > 256 µg/mL
AUC ([15]; 3 mg fast): 1442 ng·h/mL
Cmax ([15]; 3 mg fast): 22.4 ng/mL
T½ ([15]; 3 mg fast): 33.8 days
AUC ([15]; 9 mg fast): 3024 ng·h/mL
Cmax ([15]; 9 mg fast): 57.9 ng/mL
T½ ([15]; 9 mg fast): 34.6 days
AUC ([15]; 18 mg fast): 5856 ng·h/mL
Cmax ([15]; 18 mg fast): 141 ng/mL
T½ ([15]; 18 mg fast): 22 days
AUC ([15]; 36 mg fast): 10824 ng·h/mL
Cmax ([15]; 36 mg fast): 289 ng/mL
T½ ([15]; 36 mg fast): 20.2 days
AUC ([15]; 36 mg fed): 14976 ng·h/mL
Cmax ([15]; 36 mg fed): 296 ng/mL
T½ ([15]; 36 mg fed): 25.7 days
MIC90 ([3]; Streptomyces lividans, read-out: In vitro MIC90): > 256 µg/mL
MIC90 ([4]; Escherichia coli, read-out: In vitro MIC90): > 256 µg/mL
MIC ([16]; Mycobacterium gordonae, read-out: MIC): 4 µg/mL (≈ 6.25 µM)
toxicity in dogs lacking MDR1 P-glycoprotein / homozygous MDR1 mutation [17]: without any signs of toxicosis
MIC90 ([6]; Pseudomonas aeruginosa, read-out: In vitro MIC90): > 256 µg/mL
MIC ([18]; M. microti 1601, read-out: MIC): 4 µg/mL (≈ 6.25 µM)
MIC ([18]; M. microti 1608, read-out: MIC): 4 µg/mL (≈ 6.25 µM)
MIC ([18]; M. microti Ov254, read-out: MIC): 4 µg/mL (≈ 6.25 µM)
MIC90 ([7]; Mycolicibacterium smegmatis, read-out: In vitro MIC90): 4 µg/mL (≈ 6.25 µM)
dose reported safe in humans ([19]; clinical studies): up to 36 mg
dose reported not safe in humans [19]: 54 mg
MIC90 ([8]; Acinetobacter baumannii, ATCC1960, read-out: In vitro MIC90): > 256 µg/mL
MIC ([20]; Mycolicibacterium phlei, read-out: MIC): 8 µg/mL (≈ 12.5 µM)
MIC ([21]; Mycobacterium intracellulare, M. intracellulare D673): > 256 µg/mL
MIC ([21]; Mycobacterium intracellulare, M. intracellulare FM): > 256 µg/mL
MIC ([21]; Mycobacterium intracellulare, M. intracellulare 1403 ATCC35761, read-out: MIC): 16 µg/mL (≈ 25 µM)
MIC ([21]; Mycobacterium intracellulare, M. intracellulare 1403 Trudeau, read-out: MIC): 32 µg/mL (≈ 50 µM)
MIC90 ([9]; Staphylococcus aureus, ATCC25923, read-out: In vitro MIC90): > 256 µg/mL
MIC90 ([10]; Mycobacterium tuberculosis variant bovis BCG, BCG, read-out: In vitro MIC90): 4 µg/mL (≈ 6.25 µM)
LD50 [22]: 84 mg/kg body weight
MIC ([23]; Mycolicibacterium aurum, read-out: MIC): 1 µg/mL (≈ 1.56 µM)
MIC90 ([11]; ERDMAN, read-out: In vitro MIC90, strain Erdman, WT): 2 to 4 µg/mL (≈ 3.13 to 6.25 µM)
MIC90 ([11]; read-out: In vitro MIC90, strain 1254, WT): 4 µg/mL (≈ 6.25 µM)
MIC90 ([11]; read-out: In vitro MIC90, strain BC-DS1 (drug-susceptible)): 4 µg/mL (≈ 6.25 µM)
MIC90 ([11]; read-out: In vitro MIC90, strain BC-DS3 (drug-susceptible)): 2 µg/mL (≈ 3.13 µM)
MIC90 ([11]; read-out: In vitro MIC90, strain BC-DS4 (drug-susceptible)): 2 µg/mL (≈ 3.13 µM)
MIC90 ([11]; read-out: In vitro MIC90, strain BC-DS5 (drug-susceptible)): 2 to 4 µg/mL (≈ 3.13 to 6.25 µM)
MIC90 ([11]; read-out: In vitro MIC90, strain CDC 1551, WT): 2 µg/mL (≈ 3.13 µM)
AUC [24]: 11800 ng·h/mL
Cmax [24]: 234 ng/mL
T½ [24]: 25.9 days

Abamectin
MIC [13]: 16 µg/mL
MIC ([14]; M. avium 702): >256 µg/mL
MIC ([14]; M. avium 715): >256 µg/mL
MIC [16]: 16 µg/mL
MIC ([18]; M. microti 1601): 16 µg/mL
MIC ([18]; M. microti 1608): 64 µg/mL
MIC ([18]; M. microti Ov254): 256 µg/mL
MIC [20]: >256 µg/mL
MIC ([21]; M. intracellulare 1403 ATCC35761): 16 µg/mL
MIC ([21]; M. intracellulare 1403 Trudeau): 16 µg/mL
MIC ([21]; M. intracellulare D673): 32 µg/mL
MIC ([21]; M. intracellulare FM): 16 µg/mL
MIC [23]: 8 µg/mL
